# Results from patent US6524566B2, “Synthetic soil-extract materials and medicaments for herpes viruses based thereon” (Laub Biochemicals Corp., priority 1997, dated 2003).
# Assays:
# HSV-2 (HFF Cells) = test: HSV-2 cytoprotection assay in HFF cells (crystal violet); assay type: cell-based, herpes simplex virus type 2; settings: Human alphaherpesvirus 2, 72 h, 3 days
# HSV-1 (HFF Cells) = test: HSV-1 cytoprotection assay in HFF cells (crystal violet); assay type: cell-based, herpes simplex virus type 1; settings: Human alphaherpesvirus 1, 72 h, 3 days
# EBV (Daudi Cells) = test: EBV VCA ELISA in superinfected Daudi cells; assay type: cell-based, Epstein-Barr virus; settings: human gammaherpesvirus 4, 96 h, 4 days
# Text: The EBV prototype virus used in the assay of this work was P3HR-1, which is derived from supernatant fluids of the P3HR-1 cell line. This cell line produces nontransforming virus that induces the production of early antigen (EA) and viral capsid antigen (VCA) after primary infection or superinfection of B cell lines. Daudi was the test-cell line, which is a low-level producer that contains 152 EBV genome copies per cell. These cells respond to superinfection by EBV by expressing EA and VCA. The cell line was maintained in RPMI-1640 medium supplemented by 10% FBS, L-glutamine and 100 micrograms per milliliter gentamicin. The cultures were fed twice weekly and the cell concentration adjusted to 3×10^5 cells per milliliter. The cells were kept at 37° C. in a humidified atmosphere with 5% CO2.
# Daudi cells were infected and treated with humates as described above for HSV, HCMV, and VZV. The cultures were incubated for 4 days at 37° C. The cells were counted, washed and brought to the desired final concentration. For each dilution of humate, cells were added to triplicate wells of a 96-well plate and air-dried. The cells were then fixed for 20 minutes in an acetic acid/ethanol solution. […] The reaction was stopped by adding 3 Normal sulfuric acid, following which the plates were read on a microplate reader at 492 nanometers.
# HCMV (HFF Cells) = test: HCMV cytoprotection assay in HFF cells (crystal violet); assay type: cell-based, human cytomegalovirus; settings: Human betaherpesvirus 5, 336 h, 14 days
Structure (SMILES),IC50 (HSV-2 (HFF Cells)) [µg/mL],IC90 (HSV-2 (HFF Cells)) [µg/mL],IC50 (HSV-1 (HFF Cells)) [µg/mL],IC90 (HSV-1 (HFF Cells)) [µg/mL],IC50 (EBV (Daudi Cells)) [µg/mL],IC50 (HCMV (HFF Cells)) [µg/mL],IC90 (HCMV (HFF Cells)) [µg/mL]
Nc1nc2c(ncn2COCCO)c(=O)[nH]1 [Acyclovir],1.1 to 1.3,9.5,1.2 to 1.6,7.9,1.8 to 2.4,,
Nc1nc(O)c2ncn(COC(CO)CO)c2n1 [Ganciclovir],,,,,,0.3 to 0.76,0.6 to 1.3
